Where a name gives a salt, the structure may show the parent alone.
Legend:
Guinea Pig Ileum = test: Guinea pig ileum assay: inhibition of tonic contraction (K+ challenge) of longitudinal muscle, calcium channel blocking; assay type: cell-based; settings: Cavia porcellus; concentration inhibiting tonic contraction of muscle by 50%; 80 mM K+ challenge, 37° C., compound 2 minutes prior
Method: GUINEA PIG ILEUM ASSAY Male guinea-pigs weighing from 300-400 grams were stunned and bled. The abdomen was opened and 10-15 cm of terminal ileum was carefully removed and cleaned and placed in Tyrode's Solution of the following composition: NaCl (8 g/l), KCl (0.2 g/l), MgCl2 (0.1 g/l.), CaCl2 (0.2 g/l). NaH2 PO4 (0.05 g/l), NaHCO3 (1.0 g/l) and Glucose (1 g/l). The solution was maintained at 37° C. and gassed with 95%O2 and 5%CO2. Portions of the ileum were placed over a glass rod, a shallow incision was made the length of the mesenteric attachment just severing the outer-longitudinal muscle layer. The longitudinal muscle was separated from the underlying circular muscle by gentle dissection (Rang, H. P. Annals of New York Academy of Science, vol. 144, page 756, 1964). The tissue was fixed at one end to a tissue holder, the other end was connected by a thread to a force transducer and suspended in a muscle bath containing Tyrode's Solution maintained at 37° C. and gassed with 95%O2 and 5%CO2. An initial tension of 500 mg was applied and the tissue allowed to equilibrate for 60 minutes prior to the start of the study. During this period the tissue was washed every 16 minutes. Each preparation, at 16 minute intervals, was challenged with KCl sufficient to yield a bath K^+ concentration of 80 mMK for 2 minutes, then washed with fresh solution. The 16 minute interval between K^+ challenges was maintained throughout the study. Upon stabilization of the responses to the K^+ challenge the test compound (potential calcium entry antagonist) was introduced into the bath 2 minutes prior to and during the 2 minute exposure to K^+ after which the bath was cleared and washed with fresh solution. Logarithmically increasing doses (up to 10^-4 M) of the potential antagonist were administered as the study progressed. The measure of a compound's ability to inhibit the tonic contraction of muscle is a measure of its activity as a calcium channel blocking agent.

[1] = test system: Spontaneously Hypertensive (SH) Rat; test: Blood pressure lowering in the spontaneously hypertensive (SH) rat; assay type: in vivo; settings: oral, male SH rats
Method: BLOOD PRESSURE LOWERING IN THE SPONTANEOUSLY HYPERTENSIVE (SH) RAT
Six male SH rats were used for each test. Body weights were recorded. Six pre-drug control recordings of the systolic blood pressure (mmHg) were measured from the tails of the rats which were unanesthetized and restrained in holders. The rats were previously heated for 5-10 minutes at 32°-34° C. The systolic blood pressure was measured by an occlusion cuff.
The compounds were administered orally to the rats in a composition that included 5% compound and the remainder gum acacia. The blood pressure of the rats was measured over a period of hours following oral administration.
The measure of a compound's ability to decrease blood pressure, is a measure of its activity as an anti-hypertensive agent.

Row | IC50 (Guinea Pig Ileum) [µM] | Compound | Systolic Blood Pressure in SH Rat Peak Decrease (Δ mm Hg) ([1]; unanesthetized, occlusion cuff on tail, peak decrease) [mm Hg] | Duration of Effect on blood pressure ([1]; footnote a) [h]
1 | 3 | COc1ccc([C@@H]2Sc3cccc4cccc(c34)N(CCN(C)C)C(=O)[C@H]2OC(C)=O)cc1 (racemic) [OCOCH3 HCl (±)-trans, (±)-trans-3-(acetyloxy)-2,3-dihydro-5-[2-(dimethylamino)ethyl]-2-(4-methoxy-phenyl)-naphtho[1,8-bc]-1,5-thiazocin4(5H)-one hydrochloride] | – | –
2 | 4.2 | COc1ccc([C@@H]2Sc3cccc4cccc(c34)N(CCN(C)C)C(=O)[C@@H]2O)cc1 (racemic) [OH HCl (±)-cis, (±)-cis-2,3-dihydro-5-[2-(dimethylamino)ethyl]-3-hydroxy-2-(4-methoxyphenyl)naphtho[1,8-bc]-1,5-thiazocin-4(5H)-one hydrochloride] | – | –
3 | 3.9 | COc1ccc([C@@H]2Sc3cccc4cccc(c34)N(CCN(C)C)C(=O)[C@@H]2OC(C)=O)cc1 (relative stereo) [OCOCH3 HCl (±)-cis, (±)-cis-3-(acetyloxy)-2,3-dihydro-5-[2-dimethylamino)ethyl]-2-(4-methoxyphenyl)naphtho[1,8-bc]-1,5-thiazocin-4(5H)-one hydrochloride] | – | –
4 | 0.25 | COc1ccc([C@@H]2Sc3cccc4cccc(c34)N(CCN(C)C)C(=O)[C@@H]2OC(C)=O)cc1.O=C(O)/C=C/C(=O)O [OCOCH3 fumarate (+)-cis, (+)-cis-3-(acetyloxy)-2,3-dihydro-5-[2-(dimethylamino)ethyl]-2-(4-methoxyphenyl)naphtho[1,8-bc]-1,5-thiazocin-4(5H)-one (E)-2-butenedioate] | -66 ± 12 | 1 to 6
5 | 3.1 | COc1ccc([C@@H]2Sc3cccc4cccc(c34)N(CCN(C)C)C(=O)[C@@H]2O)cc1 [OH HCl (+)-cis, (+)-cis-2,3-dihydro-5-[2-(dimethylamino)ethyl]-3-hydroxy-2-(4-methoxyphenyl)naphtho[1,8-bc]-1,5-thiazocin-4(5H)-one hydrochloride] | – | –

From US4640930A, “Naphtho(1,8-bc)-1,5-thiazocinones” (Hoffmann-La Roche Inc., priority 1986, dated 1987)
